Data set [1] has as its system BVDV I cp. The data set is classed as cell-based, Bovine viral diarrhea virus.
Data set [2] deals with BDV. Type of data set: cell-based, Border disease virus.
The test system of data set [3] is BVDV-strain Pe515. Type of data set: cell-based, bovine viral diarrhea virus.
The subject of data set [4] is Non infected cells.
Data set [5] has as its system MDBK cells.
Data set [6] has as its system HSV-1 (KOS). The data set is classed as cell-based, herpes simplex virus.
Data set [7] relates to Molt4/C8. The data set is classed as cell-based, human.
Data set [8] deals with FM3A/0. The data set is classed as cell-based, murine.
The subject of data set [9] is VV. Type of data set: cell-based, vaccinia virus.
In data set [10] the test system is VZV OKA. Type of data set: cell-based, varicella zoster virus.
The subject of data set [11] is HIV-2 (ROD). The data set is classed as cell-based, human immunodeficiency virus.
Data set [12] deals with CMV Davis. Type of data set: cell-based, human cytomegalovirus.
Data set [13] deals with CEM/0. The data set is classed as cell-based, human.
Data set [14] concerns L1210/0. The data set is classed as cell-based, murine.
The subject of data set [15] is HSV-2 (G). The data set is classed as cell-based, herpes simplex virus.
Data set [16] deals with VZV YS. Type of data set: cell-based, varicella zoster virus.
Data set [17] deals with CMV AD-169. Type of data set: cell-based, human cytomegalovirus.
Data set [18] concerns HIV-1 (IIIB). The data set is classed as cell-based, human immunodeficiency virus.

Values after ≈ are worked out from the molar mass of the structure shown.

As for `CO[C@H]1O[C@@H]2O[C@@]3(C)CC[C@H]4[C@H](C)CC[C@@H]([C@H]1C)[C@@]24OO3` [Artemether, artemether], the EC90 (usually the point of the concentration-response curve where the effect stands at 90%) in data set [1] is 0.16 µg/mL (≈ 0.536 µM). For the same compound, the EC90 in data set [2] was found to be 0.8 µg/mL (≈ 2.68 µM). Besides, in data set [3], the “EC50 BVDV” value came out at 0.3 µg/mL (≈ 1.01 µM) and the “activity against BVDV” value is listed as “strong anti-viral activity”. The toxic concentration result in data set [4] is “around 100 μg/ml”. The “cell toxicity” value in data set [5] was “stayed low”.
As for `C[C@@H]1CC[C@H]2[C@@H](C)C(=O)O[C@@H]3O[C@@]4(C)CC[C@@H]1[C@]32OO4` [Artemisinin, artemisinin], in data set [6], the “EC50 HSV-1 (KOS) (E6SM)” value is more than 400 µg/mL. In addition, the “activity against tumor cell line” value in [7], in data set [8], in [13] and in data set [14] was “no interesting activity” in each case. Moreover, the “EC50 VV (E6SM)” value in data set [9] was 240 µg/mL (≈ 850 µM). The “antiviral activity against VV” value in [9] was “showed antiviral activity”. Moreover, in data set [3], the “EC50 BVDV” value was 0.4 µg/mL (≈ 1.42 µM). The “activity against BVDV” value in [3] is on record as “strong anti-viral activity”. For the same compound, in data set [10], the “EC50 VZV (HEL) OKA” value was more than 50 µg/mL. Also, the “EC50 HIV-2 (ROD) (CEM)” value in data set [11] is more than 20 µg/mL. Also, the “EC50 CMV Davis (HEL)” value in data set [12] is more than 50 µg/mL. For the same compound, the “cell toxicity” value in [5] is recorded as “stayed low”. Also, the “EC50 HSV-2 (G) (E6SM)” value in data set [15] came to 240 µg/mL (≈ 850 µM). For the same compound, the “antiviral activity against HSV-2” value in data set [15] was “showed antiviral activity”. For the same compound, the “EC50 VZV (HEL) YS” value in [16] was more than 50 µg/mL. Besides, in data set [17], the “EC50 CMV AD-169 (HEL)” value is more than 50 µg/mL. In addition, the “EC50 HIV-1 (IIIB) (CEM)” value in data set [18] is more than 20 µg/mL.
`C[C@H]1[C@H](OC(=O)CCC(=O)O)O[C@@H]2O[C@@]3(C)CC[C@H]4[C@H](C)CC[C@@H]1[C@@]24OO3` [Artensunate, artesunate]: in [3], the “EC50 BVDV” value turned out to be 0.07 µg/mL (≈ 0.182 µM) and the “activity against BVDV” value was “strong anti-viral activity”. Further, in data set [5], the “MTC MDBK (minimal toxic concentration)” value is 0.4 µg/mL and the “cell toxicity” value is reported as “stayed low”.
For `C[C@H]1[C@@H](O)O[C@@H]2O[C@@]3(C)CC[C@H]4[C@H](C)CC[C@@H]1[C@@]24OO3` [Dihydroartemisinin, dihydroartemisinin], in data set [3], the “EC50 BVDV” value was found to be 0.05 µg/mL (≈ 0.176 µM) and the “activity against BVDV” value is reported as “strong anti-viral activity”. Also, in data set [5], the “MTC MDBK (minimal toxic concentration)” value was found to be 0.4 µg/mL and the “cell toxicity” value is “stayed low”.

The values are drawn from patent publication US7842719B2 (priority 2002, dated 2010).
